The experiment relates to L1210 leukemia ip in BDF1 mice, survival T/C. Kind of experiment: NCI In Vivo Anticancer Drug Screen. Data for tumor model L1210 Leukemia (intraperitoneal) in B6D2F1 (BDF1) mice. The settings on record: endpoint: mean survival time, higher = longer survival. An outline of the steps: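 Transplanted-tumor mice were given test agent; controls received vehicle only. Survival readings from the two groups were divided (treated over control).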

Where [1] appears, read: dose: 25.0 mg/kg/injection, schedule: Q01DX009 (ip), vehicle: saline.
Setting [2] is: dose: 25.0 mg/kg/injection, schedule: Q04DX003 (ip), vehicle: saline.
Where [3] appears, read: dose: 50.0 mg/kg/injection, schedule: Q01DX009 (ip), vehicle: saline.
Where [4] appears, read: dose: 50.0 mg/kg/injection, schedule: Q04DX003 (ip), vehicle: saline.
[5] abbreviates: dose: 100.0 mg/kg/injection, schedule: Q01DX009 (ip), vehicle: saline.
Setting [6] is: dose: 100.0 mg/kg/injection, schedule: Q04DX003 (ip), vehicle: saline.
Where [7] appears, read: dose: 200.0 mg/kg/injection, schedule: Q01DX009 (ip), vehicle: saline.
Where [8] appears, read: dose: 200.0 mg/kg/injection, schedule: Q04DX003 (ip), vehicle: saline.
Where [9] appears, read: dose: 400.0 mg/kg/injection, schedule: Q01DX009 (ip), vehicle: saline.
The mark [10] stands for this setting: dose: 400.0 mg/kg/injection, schedule: Q04DX003 (ip), vehicle: saline.
Where [11] appears, read: dose: 100.0 mg/kg/injection, schedule: Q01DX009 (ip), vehicle: saline with Tween-80.
Setting [12] is: dose: 200.0 mg/kg/injection, schedule: Q01DX009 (ip), vehicle: saline with Tween-80.
[13] abbreviates: dose: 6.25 mg/kg/injection, schedule: Q01DX009 (ip), vehicle: saline.
Where [14] appears, read: dose: 100.0 mg/kg/injection, schedule: Q01DX001 (ip), vehicle: saline.
Setting [15] is: dose: 200.0 mg/kg/injection, schedule: Q01DX001 (ip), vehicle: saline.
The mark [16] stands for this setting: dose: 400.0 mg/kg/injection, schedule: Q01DX001 (ip), vehicle: saline.
The mark [17] stands for this setting: dose: 100.0 mg/kg/injection, schedule: Q04DX002 (ip), vehicle: Klucel (hydroxypropylcellulose) (HPC).
[18] abbreviates: dose: 200.0 mg/kg/injection, schedule: Q04DX002 (ip), vehicle: Klucel (hydroxypropylcellulose) (HPC).
[19] abbreviates: dose: 400.0 mg/kg/injection, schedule: Q04DX002 (ip), vehicle: Klucel (hydroxypropylcellulose) (HPC).

Values joined by “and” are separate entries in the source; they are usually repeats but may differ in a detail not shown here. Equal values may be shown once. Toxic doses and inconclusive results are not listed.

For `CCN(CC)C(=O)C1CN2CCc3cc(OC)c(OC)cc3C2CC1O` (stereo not drawn), the T/C was 97 % of control under setting [1]; 108 % of control under setting [2]; 105 % of control under setting [3]; 105 % of control under setting [4]; 103 % of control under setting [5]; 97 % of control under setting [6]. In addition, the T/C reads like this: under setting [7], 118 % of control; under setting [8], 110 % of control; under setting [9], 115 % of control; under setting [10], 105 % of control.

As for `O=C1c2ccccc2C(=O)N1CNc1ccc2c(c1)OCO2`, the T/C (dose: 50.0 mg/kg/injection, schedule: Q01DX009 (ip), vehicle: saline with Tween-80) was 108 % of control; the T/C under setting [11] was 97 % of control; the T/C under setting [12] was 90 % of control.

Consider `Oc1ccc(-c2ccccc2)cc1Br`, for which the T/C runs as follows: (dose: 100.0 mg/kg/injection, schedule: Q04DX003 (ip), vehicle: saline with Tween-80) 101 % of control; (dose: 200.0 mg/kg/injection, schedule: Q04DX003 (ip), vehicle: saline with Tween-80) 111 % of control.

In the case of `CC(=O)CC(=O)CC(O)(C(F)(F)F)C(F)(F)F`, the T/C under setting [11] is 96 % of control.

As to `NC(=S)N/N=C\c1ncnc2ccccc12`, the T/C is, setting by setting: (dose: 2.1 mg/kg/injection, schedule: Q03HX032 (ip), vehicle: saline with Tween-80) 101 % of control; (dose: 3.2 mg/kg/injection, schedule: Q03HX032 (ip), vehicle: saline with Tween-80) 107 % of control; (dose: 4.8 mg/kg/injection, schedule: Q03HX032 (ip), vehicle: saline with Tween-80) 118 % of control; under setting [13], 115 % of control; (dose: 7.2 mg/kg/injection, schedule: Q03HX032 (ip), vehicle: saline with Tween-80) 91 % of control; (dose: 50.0 mg/kg/injection, schedule: Q01DX001 (ip), vehicle: saline) 100 % of control. The T/C runs as follows: under setting [3], 117 % of control; under setting [14], 112 % of control; under setting [15], 118 % of control; under setting [16], 112 % of control.

Regarding `CCOC(=O)NC(NC(=O)OCC)c1ccc(Cl)cc1Cl`, the T/C (dose: 100.0 mg/kg/injection, schedule: Q01DX001 (ip), vehicle: carboxymethylcellulose (CMC)) was 88 % of control and the T/C (dose: 400.0 mg/kg/injection, schedule: Q01DX001 (ip), vehicle: carboxymethylcellulose (CMC)) was 88 % of control.

As to `O=[N+]([O-])c1ccc(N2N=NC3CC/C(=C\c4cccs4)C32N2CCOCC2)cc1` (stereo not drawn), the T/C by setting is: under setting [17], 93 % of control; under setting [18], 101 % of control; under setting [19], 90 % of control.

On to `COc1ccc(Cl)cc1NC(=O)Nc1cc(C)ccc1N=Nc1ccc(C)cc1`, for which the T/C is, setting by setting: (dose: 100.0 mg/kg/injection, schedule: Q01DX001 (ip), vehicle: saline with Tween-80) 96 % of control and 91 % of control; under setting [11], 88 % of control; (dose: 100.0 mg/kg/injection, schedule: Q04DX002 (ip), vehicle: saline with Tween-80) 87 % of control; (dose: 200.0 mg/kg/injection, schedule: Q01DX001 (ip), vehicle: saline with Tween-80) 96 % of control; under setting [12], 94 % of control and 91 % of control; (dose: 200.0 mg/kg/injection, schedule: Q04DX002 (ip), vehicle: saline with Tween-80) 92 % of control. In addition, the T/C was 96 % of control and 88 % of control (dose: 400.0 mg/kg/injection, schedule: Q01DX001 (ip), vehicle: saline with Tween-80); 94 % of control (dose: 400.0 mg/kg/injection, schedule: Q01DX009 (ip), vehicle: saline with Tween-80); 92 % of control (dose: 400.0 mg/kg/injection, schedule: Q04DX002 (ip), vehicle: saline with Tween-80).

As to `CCOC(=O)C(CC(C(=O)OCC)C(=O)OCC)C(=O)OCC`, the T/C by setting is: (dose: 75.0 mg/kg/injection, schedule: Q01DX009 (ip), vehicle: saline) 98 % of control; under setting [6], 113 % of control; (dose: 150.0 mg/kg/injection, schedule: Q01DX009 (ip), vehicle: saline) 98 % of control; under setting [8], 97 % of control; (dose: 300.0 mg/kg/injection, schedule: Q01DX009 (ip), vehicle: saline) 95 % of control; under setting [10], 97 % of control.

As to `COc1cccc(C(N)=O)c1`, the T/C by setting is: under setting [17], 97 % of control; under setting [18], 97 % of control; under setting [19], 104 % of control.

As to `OCCC[P+](c1ccccc1)(c1ccccc1)c1ccccc1`, the T/C by setting is: (dose: 25.0 mg/kg/injection, schedule: Q01DX009 (ip), vehicle: Klucel (hydroxypropylcellulose) (HPC)) 96 % of control; (dose: 50.0 mg/kg/injection, schedule: Q01DX009 (ip), vehicle: Klucel (hydroxypropylcellulose) (HPC)) 100 % of control; (dose: 100.0 mg/kg/injection, schedule: Q04DX003 (ip), vehicle: Klucel (hydroxypropylcellulose) (HPC)) 102 % of control.

For `CCCCCCCCN1C(=O)C2C(C1=O)C1(Cl)C(Cl)=C(Cl)C2(Cl)C1(Cl)Cl` (stereo not drawn), the T/C is 95 % of control under setting [5], 97 % of control under setting [7] and 93 % of control under setting [9].

Regarding `O=C1C2C3CC4C2C(=O)C2C1C3C42` (stereo not drawn), the T/C is 101 % of control (dose: 75.0 mg/kg/injection, schedule: Q01DX001 (ip), vehicle: other); 97 % of control under setting [5]; 94 % of control under setting [6]; 101 % of control (dose: 150.0 mg/kg/injection, schedule: Q01DX001 (ip), vehicle: other); 94 % of control under setting [7]; 104 % of control under setting [8]. Also, the T/C was 93 % of control (dose: 300.0 mg/kg/injection, schedule: Q01DX001 (ip), vehicle: other); 104 % of control under setting [9]; 91 % of control under setting [10].

Regarding `COc1ccc2c(O)c(Cl)c(=O)oc2c1`, the T/C is 91 % of control under setting [6], 91 % of control under setting [8] and 94 % of control under setting [10].

For `CN(Cc1cnc2nc(N)nc(N)c2n1)c1c(F)cc(C(=O)NC(CCC(=O)O)C(=O)O)cc1F` (stereo not drawn), the T/C is, setting by setting: (dose: 1.5 mg/kg/injection, schedule: Q01DX009 (ip), vehicle: sodium bicarbonate) 114 % of control; (dose: 12.0 mg/kg/injection, schedule: Q01DX009 (ip), vehicle: sodium bicarbonate) 154 % of control.

For the compound `CCOC(=O)C1CC2(Cl)C(Cl)=C(Cl)C1(Cl)C2(Cl)Cl` (stereo not drawn), the T/C runs as follows: under setting [14], 98 % of control; under setting [6], 94 % of control; under setting [15], 93 % of control; under setting [8], 94 % of control; under setting [16], 98 % of control; under setting [10], 93 % of control.

For `CCC1CC[N-]CC1.CCC1CC[N-]CC1.[Cl][Pt+2]([Cl])([Cl])[Cl]`, the T/C under setting [13] was 103 % of control; the T/C (dose: 12.5 mg/kg/injection, schedule: Q01DX009 (ip), vehicle: saline) is 110 % of control; the T/C (dose: 12.5 mg/kg/injection, schedule: Q04DX003 (ip), vehicle: saline) is 97 % of control; the T/C under setting [1] is 86 % of control; the T/C under setting [2] is 95 % of control; the T/C under setting [4] is 104 % of control.

Take `NC(CC(=O)CCl)C(=O)O` (stereo not drawn): the T/C (dose: 9.4 mg/kg/injection, schedule: Q01DX009 (ip), vehicle: saline) was 107 % of control; the T/C (dose: 18.8 mg/kg/injection, schedule: Q01DX009 (ip), vehicle: saline) was 102 % of control; the T/C (dose: 22.0 mg/kg/injection, schedule: Q04DX003 (ip), vehicle: saline) was 121 % of control; the T/C (dose: 75.0 mg/kg/injection, schedule: Q01DX001 (ip), vehicle: carboxymethylcellulose (CMC)) is 121 % of control; the T/C (dose: 75.0 mg/kg/injection, schedule: Q01DX009 (ip), vehicle: carboxymethylcellulose (CMC)) is 88 % of control; the T/C (dose: 150.0 mg/kg/injection, schedule: Q01DX001 (ip), vehicle: carboxymethylcellulose (CMC)) was 109 % of control.

As to `Cc1cccnc1Nc1ncccc1C`, the T/C under setting [3] is 100 % of control, the T/C under setting [5] is 96 % of control and the T/C under setting [7] is 103 % of control.

Take `Cc1ccc(OCCOC(=O)COc2ccc(Cl)cc2Cl)cc1C`: the T/C runs as follows: under setting [17], 102 % of control; under setting [18], 97 % of control; under setting [19], 102 % of control.

Values taken from PubChem BioAssay AID248 (DTP/NCI, 2004).
